Legend:
[1] = tested on: HT-29 human colon cancer cells; test: HT-29 colon tumour growth in CD-1 nude mice, SEQ ID NO:1 alone (3.1); assay type: in vivo, human cells in mice
Experimental: (§1) Treatments lasted for 14 days thereafter. Antitumour activities were estimated by the inhibition of tumour volume, which was measured with a caliper on four different occasions over the treatment period. Each point represents mean tumour volume calculated from 5 animals per experimental group. […] Control animals (control) received saline alone for the same period. At the end of the treatments, the animals were sacrificed, tumours were excised and their weights were measured. Each bar represents mean tumour weight calculated from 6 animals per experimental group. […] Treatments lasted for 24 days thereafter. Antitumour activities were estimated by the inhibition of tumour volume, which was measured with a caliper at two-day intervals over the treatment period. Each point represents mean tumour volume calculated from 4 animals per experimental group. […] Treatments lasted for 24 days thereafter. Antitumour activities were estimated by the inhibition of tumour volume, which was measured with a caliper at two-day intervals over the treatment period. Each point represents mean tumour volume calculated from 4 animals per experimental group. […] Treatments lasted for 22 days thereafter. […] Each point represents mean tumour volume calculated from 5 animals per experimental group. […] Treatments lasted for 14 days thereafter. Antitumour activities were estimated by the inhibition of tumour volume, which was measured with a caliper on four different occasions over 16-day period. Each point represents mean tumour volume calculated from 5 animals per experimental group. […] Two different batches of SEQ ID NO:1, synthesized at different times (designated as batch 1 and batch 2), were tested to detect possible batch-specific effects. […] Treatments lasted for 34 days thereafter. Antitumour activities were estimated by the inhibition of tumour volume, which was measured with a caliper at two-day intervals over the treatment period. Each point represents mean tumour volume calculated from 5 animals per experimental group. […] Treatments lasted for 30 days thereafter. Antitumour activities were estimated by the inhibition of tumour volume, which was measured with a caliper at various time intervals over the span of 30 days. Each point represents mean tumour volume calculated from 6 animals per experimental group. […] All treatments were stopped at day 36. Antitumour activities were estimated by the inhibition of tumour volume, which was measured with a caliper. Each point represents mean tumour volume calculated from 5 animals per experimental group. […] All treatments were stopped at day 52. Mice treated with saline or one of the three chemotherapeutic agents were sacrificed at day 80 because the tumour became too large. Mice treated with SEQ ID NO:1 were kept for 16 days further to observe possible resurgence of resistant tumour growth. Antitumour activities were estimated by the inhibition of tumour volume, which was measured with a caliper.

human whole blood = test: Intravenous compatibility assay (haemolysis); assay type: cell-based; conditions: static or dynamic conditions
[2] = tested on: Caki-1 human kidney cancer cells; test: Caki-1 kidney tumour growth in CD-1 nude mice (3.8); assay type: in vivo, human cells in mice
Experimental: Treatments lasted for 14 days thereafter. Antitumour activities were estimated by the inhibition of tumour volume, which was measured with a caliper on four different occasions over the treatment period. Each point represents mean tumour volume calculated from 5 animals per experimental group. […] Control animals (control) received saline alone for the same period. At the end of the treatments, the animals were sacrificed, tumours were excised and their weights were measured. Each bar represents mean tumour weight calculated from 6 animals per experimental group. […] Treatments lasted for 24 days thereafter. Antitumour activities were estimated by the inhibition of tumour volume, which was measured with a caliper at two-day intervals over the treatment period. Each point represents mean tumour volume calculated from 4 animals per experimental group. […] Treatments lasted for 24 days thereafter. Antitumour activities were estimated by the inhibition of tumour volume, which was measured with a caliper at two-day intervals over the treatment period. Each point represents mean tumour volume calculated from 4 animals per experimental group. […] Each point represents mean tumour volume calculated from 5 animals per experimental group. […] Antitumour activities were estimated by the inhibition of tumour volume, which was measured with a caliper on four different occasions over 16-day period. […]

[3] = Phase I study of SEQ ID NO:1: pharmacokinetics; conditions: patients
Experimental: On Day 1 a heparinized blood sample was collected at baseline and then at 1, 2, 3, 4 and 6 hours after start of infusion. On Days 8 and 15, a single heparinized sample was taken. On Day 22 a heparinized blood sample was collected prior to the end of infusion and at 0.25, 0.5, 1, 2, 4 and 6 hours following the end of infusion. Plasma was decanted and stored at −70° C.
Pharmacokinetic parameters were assessed. SEQ ID NO:1 was administered using a portable infusion pump in cycles of 21 days CVI followed by one week of rest. […] Doses were doubled in cohorts of 1-3 patients until the appearance of Gr 1 toxicity, with subsequent escalation of 20-30% in cohorts of 3 patients. DLT was defined as Gr 4 neutropenia lasting 3 days or with fever; Gr 4 thrombocytopenia (T) or Gr 3 T with Gr 1 bleeding; or Gr 3 non-hematologic toxicity.

[4] = tested on: HeLa S3 human cervical cancer cells; test: HeLa S3 cervical tumour growth in SCID mice (3.11); assay type: in vivo, human cells in mice
Experimental: (§2) Treatments lasted for 14 days thereafter. Antitumour activities were estimated by the inhibition of tumour volume, which was measured with a caliper on four different occasions over the treatment period. Each point represents mean tumour volume calculated from 5 animals per experimental group. […] Control animals (control) received saline alone for the same period. At the end of the treatments, the animals were sacrificed, tumours were excised and their weights were measured. Each bar represents mean tumour weight calculated from 6 animals per experimental group. […] Treatments lasted for 24 days thereafter. Antitumour activities were estimated by the inhibition of tumour volume, which was measured with a caliper at two-day intervals over the treatment period. Each point represents mean tumour volume calculated from 4 animals per experimental group. […] Treatments lasted for 24 days thereafter. Antitumour activities were estimated by the inhibition of tumour volume, which was measured with a caliper at two-day intervals over the treatment period. Each point represents mean tumour volume calculated from 4 animals per experimental group. […] Each point represents mean tumour volume calculated from 5 animals per experimental group. […] Antitumour activities were estimated by the inhibition of tumour volume, which was measured with a caliper on four different occasions over 16-day period. Each point represents mean tumour volume calculated from 5 animals per experimental group. […] Antitumour activities were estimated by the inhibition of tumour volume, which was measured with a caliper at two-day intervals over the treatment period. Each point represents mean tumour volume calculated from 5 animals per experimental group. […] Antitumour activities were estimated by the inhibition of tumour volume, which was measured with a caliper at various time intervals over the span of 30 days. Each point represents mean tumour volume calculated from 6 animals per experimental group. […] Antitumour activities were estimated by the inhibition of tumour volume, which was measured with a caliper. […]

[5] = tested on: SU.86.86 human pancreatic cancer cells; test: SU.86.86 pancreatic tumour growth in CD-1 nude mice (3.6); assay type: in vivo, human cells in mice
Experimental: as §2

[6] = tested on: Hep G2 human liver cancer cells; test: HepG2 liver tumour growth in CD-1 nude mice (3.7); assay type: in vivo, human cells in mice
Experimental: as §1, with “Mice treated with saline or one of the three chemotherapeutic agents were sacrificed at day 80 because the tumour became too large. Mice treated with SEQ ID NO:1 were kept for 16 days further to observe possible resurgence of resistant tumour growth.” left out

[7] = Human Cervical Carcinoma^2 in SCID mice, Day 17 after tumour implantation

## 5′-GGCTAAATCGCTCCACCAAG-3′ (all phosphorothioate, sugars by position and methylation of C not given here) [SEQ ID NO: 1, fully phosphorothioated antisense oligonucleotide that hybridizes to the coding region of R2 mRNA]
[1]; HT-29, CD-1 nude mice, 10 mg/kg i.v. every other day, 14 days
  Inhibitory effect on tumour growth (tumour volume, FIG. 17A): statistically significant inhibitory effects
[1]; HT-29, CD-1 nude mice, 0.4-6.0 mg/kg i.v. every other day for 14 days
  Inhibitory effect on tumour growth (tumour weight, FIG. 17B): statistically significant inhibitory effects on the growth of human colon adenocarcinoma in a dose-dependent manner
[1]; Human Colon Adenocarcinoma
  Inhibition of tumour weight: ~80%
[1]; Human Colon Adenocarcinoma in CD-1 nude mice, Day 18 after tumour implantation
  Inhibition of tumour size: approximately 80% on Day 18 after tumour
[1]; in vivo
  Dose dependence of tumour weight: Dose-dependent decrease in tumour weight in
Human whole blood
  Haemolytic activity (cell lysis and haemoglobin release): did not cause haemolysis under static or dynamic conditions
[2]; Caki-1, CD-1 nude mice, 10 mg/kg i.v. every other day to day 36
  Inhibitory effect on tumour growth (tumour volume, FIG. 21A): powerful inhibitory effects on the growth of human renal carcinoma cells, resulting in total regression of the tumours in three mice
[2]; Human Renal Carcinoma (first entry of Table 5)
  Inhibition of tumour size: Approximately 90% inhibition of tumour size
[3]; 37 mg/m^2/day CVI
  AUC, mean (coefficient of variation): 7.54 (141)^$ μg · hr/ml
  Clearance: 595 L/m^2/day
  Cmax, mean (coefficient of variation): 0.09 (141) μg/ml
  Css, mean (coefficient of variation): 0.03 (141) μg/ml
[3]; 74 mg/m^2/day CVI
  AUC, mean (coefficient of variation): 15.5 (141) μg · hr/ml
  Cmax, mean (coefficient of variation): 0.61 (141) μg/ml
[3]; 148 mg/m^2/day CVI
  AUC, mean (coefficient of variation): 426 (87) μg · hr/ml
  Clearance, mean (coefficient of variation): 244 (90) L/m^2/day
  Cmax, mean (coefficient of variation): 2.2 (41) μg/ml
  Css, mean (coefficient of variation): 0.77 (94) μg/ml
  T1/2, mean (coefficient of variation): 0.79 (25) hr
[3]; 185 mg/m^2/day CVI
  AUC, mean (coefficient of variation): 340 (67) μg · hr/ml
  Clearance, mean (coefficient of variation): 558 (119) L/m^2/day
  Cmax, mean (coefficient of variation): 2.15 (57) μg/ml
  Css, mean (coefficient of variation): 0.63 (98) μg/ml
  T1/2, mean (coefficient of variation): 2.74 (171) hr
[3]; 222 mg/m^2/day CVI
  AUC, mean (coefficient of variation): 380 (94) μg · hr/ml
  Clearance, mean (coefficient of variation): 483 (161) L/m^2/day
  Cmax, mean (coefficient of variation): 2.98 (99) μg/ml
  Css, mean (coefficient of variation): 1.24 (87) μg/ml
  T1/2, mean (coefficient of variation): 1.43 (46) hr
[3]; phase II dose (185 mg/m^2/day), preliminary analysis
  mean steady-state plasma concentration: 0.6 µg/mL
[3]; preliminary analysis
  t1/2: about 2 hrs
[4]; HeLa S3, SCID mice, 10 mg/kg i.v. every other day, 14 days
  Inhibitory effect on tumour growth (tumour volume and weight, FIG. 23): strong inhibitory effects on the growth of human cervical carcinoma
[4]; [7]
  Inhibition of tumour size: approximately 60% in SCID mice on Day 17fter
  Inhibition of tumour weight: approximately 60% in SCID mice on Day 17fter
[5]; Human Pancreatic Adenocarcinoma
  Inhibition of tumour weight: ~65%
[5]; Human Pancreatic Adenocarcinoma, up to 39 days after tumour implantation
  Inhibition of tumour growth: Complete inhibition of tumour growth up to 39
[5]; SU.86.86, CD-1 nude mice, 10 mg/kg i.v. every other day, 34 days, two batches
  Inhibitory effect on tumour growth (tumour volume, FIG. 19): strong inhibitory effects on the growth of human pancreatic carcinoma
[6]; Hep G2, CD-1 nude mice, 2.5 mg/kg i.v. every day, 30 days
  Inhibitory effect on tumour growth (tumour volume, FIG. 20): significant inhibitory effects on the growth of human hepatoma cells
[6]; Human Liver Carcinoma
  Inhibition of tumour weight: ~65%
[6]; Human Liver Carcinoma in CD-1 nude mice, Day 30 after tumour implantation
  Inhibition of tumour size: Inhibition of tumour size by 45% in CD-1 nude

From patent publication US7968526B2, “Antisense oligonucleotides directed to ribonucleotide reductase R2 and uses thereof in the treatment of cancer” (Lorus Therapeutics Inc., priority 2003, dated 2011)
